Data published in US20130012546A1 (priority 2009, published 2013).

assay: logP(HCOOH) by HPLC; assay type: physicochemical; details: HPLC on reversed phase columns, pH 2.7, 0.1% formic acid in water / acetonitrile gradient

| SMILES | log p |
| --- | --- |
| CCC(OC1CCCCC1)C(=O)Nc1cccc(CON=C(c2ccccc2)c2nnnn2C)n1 (centres unmarked) [compound 193] | 4.88 |
| CCC(OC1CCC1)C(=O)Nc1cccc(CON=C(c2ccccc2)c2nnnn2C)n1 (centres unmarked) [compound 194] | 4.11 |
| CCC(OC1CCCCCC1)C(=O)Nc1cccc(CON=C(c2ccccc2)c2nnnn2C)n1 (centres unmarked) [compound 195] | 5.27 |
| CCC(OC1CCCC1)C(=O)Nc1cccc(CON=C(c2ccccc2)c2nnnn2C)n1 (centres unmarked) [compound 196] | 4.51 |
| CC1CCCC(OC(C)C(=O)Nc2cccc(CON=C(c3ccccc3)c3nnnn3C)n2)C1 (centres unmarked) [compound 197] | 4.81 |
| CC1CCC(OC(C)C(=O)Nc2cccc(CON=C(c3ccccc3)c3nnnn3C)n2)CC1 (centres unmarked) [compound 198] | 4.81 |
| Cn1nnnc1C(=NOCc1csc(NC(=O)CON=C2CCCCC2)n1)c1ccccc1 [compound 200] | 3.46 |
| CC(=NOCC(=O)Nc1cccc(CON=C(c2ccccc2)n2nnnc2C)n1)c1ccccc1 [compound 202] | 3.94 |
| CC(C)=NOC(C)C(=O)Nc1cccc(CON=C(c2ccccc2)n2nnnc2C)n1 (centres unmarked) [compound 203] | 3.35 |
| CC(=NOCC(=O)Nc1cccc(CON=C(c2ccccc2)n2nnnc2C)n1)C(C)(C)C [compound 204] | 4.34 |
| CC1=C(CC(C)OC(=O)Nc2nc(CON=C(c3ccccc3)n3nnnc3C)cs2)C1(C)C (centres unmarked) [compound 207] | 4.86 |
| CC1=C(CC(C)OC(=O)Nc2nc(CON=C(c3ccccc3)n3nnnc3C)cs2)C1 (centres unmarked) [compound 208] | 4.11 |
| CC1=C(CC(C)OC(=O)Nc2nc(CON=C(c3ccccc3)c3nnnn3C)cs2)C1(C)C (centres unmarked) [compound 209] | 4.68 |
| CC1=C(CC(C)OC(=O)Nc2nc(CON=C(c3ccccc3)c3nnnn3C)cs2)C1 (centres unmarked) [compound 210] | 4.06 |
| Cn1nnnc1C(=NOCc1csc(NC(=O)OC2CCc3ccccc3C2)n1)c1ccccc1 (centres unmarked) [compound 211] | 4.14 |
| CC(C)=NOCCOC(=O)Nc1cccc(CON=C(c2ccccc2)c2nnnn2C)n1 [compound 213] | 3.11 |
| CC=NOCCOC(=O)Nc1cccc(CON=C(c2ccccc2)c2nnnn2C)n1 [compound 214] | 2.96 |
| CC1=C(CC(C)OCC(=O)Nc2nc(CON=C(c3ccccc3)n3nnnc3C)cs2)C1 (centres unmarked) [compound 215] | 4.11 |
| CC1=C(CC(C)OCC(=O)Nc2nc(CON=C(c3ccccc3)n3nnnc3C)cs2)C1(C)C (centres unmarked) [compound 216] | 4.91 |
| Cc1nnnn1C(=NOCc1csc(NC(=O)CC=COc2ccccc2)n1)c1ccccc1 [compound 217] | 3.61 |
| CC1=C(CC(C)OCC(=O)Nc2nc(CON=C(c3ccccc3)c3nnnn3C)cs2)C1(C)C (centres unmarked) [compound 218] | 4.83 |
| CC1=C(CC(C)OCC(=O)Nc2nc(CON=C(c3ccccc3)c3nnnn3C)cs2)C1 (centres unmarked) [compound 219] | 4.03 |
| Cn1nnnc1C(=NOCc1csc(NC(=O)CC=COc2ccccc2)n1)c1ccccc1 [compound 220] | 3.57 |
| CC1=C(CC(C)OCC(=O)Nc2cccc(CON=C(c3ccccc3)n3nnnc3C)n2)C1 (centres unmarked) [compound 221] | 4.37 |
| CC1=C(CC(C)OCC(=O)Nc2cccc(CON=C(c3ccccc3)n3nnnc3C)n2)C1(C)C (centres unmarked) [compound 222] | 5.42 |
| CC1=C(CC(C)OCC(=O)Nc2cccc(CON=C(c3ccccc3)c3nnnn3C)n2)C1 (centres unmarked) [compound 223] | 4.3 |
| CC1=C(CC(C)OCC(=O)Nc2cccc(CON=C(c3ccccc3)c3nnnn3C)n2)C1(C)C (centres unmarked) [compound 224] | 5.14 |
| Cn1nnnc1C(=NOCc1csc(NC(=O)CC[Si](C)(C)C)n1)c1ccccc1 [compound 227] | 4.01 |

same assay, conditions: HPLC on reversed phase columns, pH 2.7, 0.1% formic acid in water / acetonitrile, linear gradient 10% to 95% acetonitrile; EEC directive 79/831 Annex V.A8

| SMILES | log p |
| --- | --- |
| Cc1nnnn1C(=NOCc1csc(NC(=O)C(C)OC2CCC2)n1)c1ccccc1 (centres unmarked) [compound 165] | 3.46 |
| CCC(OC1CCCCC1)C(=O)Nc1nc(CON=C(c2ccccc2)n2nnnc2C)cs1 (centres unmarked) [compound 166] | 4.56 |
| CCC(OC1CCC1)C(=O)Nc1nc(CON=C(c2ccccc2)n2nnnc2C)cs1 (centres unmarked) [compound 167] | 3.83 |
| CCC(OC1CCCC1)C(=O)Nc1nc(CON=C(c2ccccc2)n2nnnc2C)cs1 (centres unmarked) [compound 168] | 4.24 |
| CCC(OC1CCCCCC1)C(=O)Nc1nc(CON=C(c2ccccc2)n2nnnc2C)cs1 (centres unmarked) [compound 169] | 4.93 |
| Cc1nnnn1C(=NOCc1csc(NC(=O)C(C)OC2CCCC(C)C2)n1)c1ccccc1 (centres unmarked) [compound 170] | 4.53 |
| Cc1nnnn1C(=NOCc1csc(NC(=O)C(C)OC2CCC(C)CC2)n1)c1ccccc1 (centres unmarked) [compound 171] | 4.53 |
| CC(OC1CCC1)C(=O)Nc1nc(CON=C(c2ccccc2)c2nnnn2C)cs1 (centres unmarked) [compound 172] | 3.39 |
| CCC(OC1CCCCC1)C(=O)Nc1nc(CON=C(c2ccccc2)c2nnnn2C)cs1 (centres unmarked) [compound 173] | 4.42 |
| CCC(OC1CCC1)C(=O)Nc1nc(CON=C(c2ccccc2)c2nnnn2C)cs1 (centres unmarked) [compound 174] | 3.76 |
| CCC(OC1CCCC1)C(=O)Nc1nc(CON=C(c2ccccc2)c2nnnn2C)cs1 (centres unmarked) [compound 175] | 4.16 |
| CCC(OC1CCCCCC1)C(=O)Nc1nc(CON=C(c2ccccc2)c2nnnn2C)cs1 (centres unmarked) [compound 176] | 4.87 |
| CC1CCCC(OC(C)C(=O)Nc2nc(CON=C(c3ccccc3)c3nnnn3C)cs2)C1 (centres unmarked) [compound 177] | 4.44 |
| CC1CCC(OC(C)C(=O)Nc2nc(CON=C(c3ccccc3)c3nnnn3C)cs2)CC1 (centres unmarked) [compound 178] | 4.44 |
| Cn1nnnc1C(=NOCc1csc(NC(=O)C(OC2CCCCC2)c2ccccc2)n1)c1ccccc1 (centres unmarked) [compound 179] | 4.82 |
| CC(OC1CCCCC1)C(=O)Nc1cccc(CON=C(c2ccccc2)c2nnnn2C2CC2)n1 (centres unmarked) [compound 180] | 4.93 |
| CC(OC1CCCCC1)C(=O)Nc1ccc(Br)c(CON=C(c2ccccc2)c2nnnn2C)n1 (centres unmarked) [compound 181] | 5.11 |
| Cc1nnnn1C(=NOCc1cccc(NC(=O)C(C)OC2CCCCC2)n1)c1ccccc1 (centres unmarked) [compound 182] | 4.46 |
| Cc1nnnn1C(=NOCc1cccc(NC(=O)C(C)OC2CCCC2)n1)c1ccccc1 (centres unmarked) [compound 183] | 4.12 |
| Cc1nnnn1C(=NOCc1cccc(NC(=O)C(C)OC2CCCCCC2)n1)c1ccccc1 (centres unmarked) [compound 184] | 4.86 |
| Cc1nnnn1C(=NOCc1cccc(NC(=O)C(C)OC2CCC2)n1)c1ccccc1 (centres unmarked) [compound 185] | 3.74 |
| CCC(OC1CCCCC1)C(=O)Nc1cccc(CON=C(c2ccccc2)n2nnnc2C)n1 (centres unmarked) [compound 186] | 4.91 |
| CCC(OC1CCC1)C(=O)Nc1cccc(CON=C(c2ccccc2)n2nnnc2C)n1 (centres unmarked) [compound 187] | 4.2 |
| CCC(OC1CCCC1)C(=O)Nc1cccc(CON=C(c2ccccc2)n2nnnc2C)n1 (centres unmarked) [compound 188] | 4.65 |
| CCC(OC1CCCCCC1)C(=O)Nc1cccc(CON=C(c2ccccc2)n2nnnc2C)n1 (centres unmarked) [compound 189] | 5.41 |
| Cc1nnnn1C(=NOCc1cccc(NC(=O)C(C)OC2CCCC(C)C2)n1)c1ccccc1 (centres unmarked) [compound 190] | 4.96 |
| Cc1nnnn1C(=NOCc1cccc(NC(=O)C(C)OC2CCC(C)CC2)n1)c1ccccc1 (centres unmarked) [compound 191] | 4.93 |
| CC(OC1CCC1)C(=O)Nc1cccc(CON=C(c2ccccc2)c2nnnn2C)n1 (centres unmarked) [compound 192] | 3.7 |
